Data as given in ChEMBL document CHEMBL3272206, “Importance of the aromatic ring in adrenergic amines. 2. Synthesis and adrenergic activity of some nonaromatic six- and eight-membered ring analogs of beta-phenylethanolamine” (J Med Chem, 1976).
Active and inactive are the calls of the source. No cut-off for these calls is given here.

B1: Phenylethanolamine N-methyltransferase (Bos taurus), P10938 (protein)
chain: MSGTDRSQAAGAVPDSDPGLAAVSSAYQRFEPRAYLRNNYAPPRGDLSCPDGVGPWKLRCLAQTFATGEVSGRTLIDIGSGPTIYQLLSACAHFEDITMTDFLEVNRQELRLWLREEPGAFDWSVYSQHVCLIEGKGESWQEKECQLRARVKRILPIDVHRPQPLGAGGLAPLPADALVSAFCLEAVSPDLASFQRALDHITTLLRPGGHLLLIGALEESWYLAGEARLAVVPVREEEVREALVRTATRCGICARTPMPAHLQTGVDDVKGIFFTRAQKKVGV

Columns and labels:
[1] = organism: Rattus norvegicus; assay: Adrenergic activity in reserpine-pretreated albino Sprague-Dawley rat vas deferens assessed as contractile response; assay type: functional, tissue-based
[2] = system: Vas deferens; assay: Adrenergic activity in reserpine-pretreated albino Sprague-Dawley rat vas deferens assessed as potentiation of norepinephrine-induced contractile response at 30 uM; assay type: functional, tissue-based
[3] = organism: Rattus norvegicus; assay: Adrenergic activity in albino Sprague-Dawley rat vas deferens assessed as contractile response at 0.3 mM measured after 1 to 5 mins; assay type: functional, tissue-based
[4] = substrate: NCC(O)C1=C/CCCC/C=C\1; assay: (§1) Activity at PNMT in bovine adrenal medulla using DL-beta-phenylethanolamine and SAM-14CH3 as substrate measured per mg of protein by Michaelis-Menten analysis; conditions: Bos taurus
[5] = substrate: NCC(O)c1ccccc1; assay: as §1; conditions: Bos taurus
[6] = substrate: NCC(O)C1CCCCCCC1; assay: as §1; conditions: Bos taurus
[7] = substrate: NCC(O)/C1=C/CC/C=C\CC1; assay: as §1; conditions: Bos taurus
[8] = substrate: NCC(O)C1CCCCC1; assay: as §1; conditions: Bos taurus
[9] = substrate: NCC(O)C1CC=CCC1; assay: as §1; conditions: Bos taurus
[10] = substrate: NCC(O)C1=C/C=C\C=C/C=C\1; assay: as §1; conditions: Bos taurus
[11] = substrate: NCC(O)C1=C/CCCC/C=C\1; assay: (§2) Activity at PNMT in bovine adrenal medulla using DL-beta-phenylethanolamine and SAM-14CH3 as substrate by Michaelis-Menten analysis; conditions: Bos taurus
[12] = substrate: NCC(O)c1ccccc1; assay: as §2; conditions: Bos taurus
[13] = substrate: NCC(O)C1CCCCCCC1; assay: as §2; conditions: Bos taurus
[14] = substrate: NCC(O)/C1=C/CC/C=C\CC1; assay: as §2; conditions: Bos taurus
[15] = substrate: NCC(O)C1CCCCC1; assay: as §2; conditions: Bos taurus
[16] = substrate: NCC(O)C1CC=CCC1; assay: as §2; conditions: Bos taurus
[17] = substrate: NCC(O)C1=C/C=C\C=C/C=C\1; assay: as §2; conditions: Bos taurus

Molecule | Activity [1] | Activity [2] | Activity [3] | also measured
C[C@@H](N)[C@@H](O)c1ccccc1 | inactive | Active | Active | 
NCC(O)C1/C=C\CCCCC1 (stereo not given) | inactive | Active | Active | 
NCC(O)C1=C/CCCC/C=C\1 (stereo not given) | inactive | Active | Active | 
NCC(O)C1CCCCCCC1 (stereo not given) | inactive | Active | Active | 
NCC(O)C1=C/C=C\C=C/C=C\1 (stereo not given) | inactive | Active | Active | 
NCC(O)C1CCCCC1 (stereo not given) | inactive | Active | Active | 
NCC(O)C1CC=CCC1 (stereo not given) | inactive | Active | Active | 
NCC(O)c1ccccc1 (stereo not given) | inactive | Active | Active | 
NCC(O)/C1=C/CC/C=C\CC1 (stereo not given) | inactive |  | Active | 
B1 |  |  |  | Vmax [4]: 2.61 nmol/min; Vmax [5]: 2.1 nmol/min; Vmax [6]: 0.96 nmol/min; Vmax [7]: 2.75 nmol/min; Vmax [8]: 0.99 nmol/min; Vmax [9]: 1.37 nmol/min; Vmax [10]: 1.73 nmol/min; Km [11]: 128 µM; Km [12]: 136 µM; Km [13]: 26 µM; Km [14]: 155 µM; Km [15]: 40 µM; Km [16]: 57 µM; Km [17]: 430 µM
